The results in this text go back to ChEMBL document CHEMBL1144818, “Antifouling activity of a dibrominated cyclopeptide from the marine sponge Geodia barretti” (J Nat Prod, 2008).

The source made the active and inactive calls. The rule behind the calls is not given here.

Usually EC50 stands for the concentration needed to bring the measured effect to its halfway point.

In test [1] the target is 5-hydroxytryptamine receptor 4 (Homo sapiens) (UniProt Q13639). Nature of the test: Binding affinity to human 5HT4 receptor expressed in HEK293 cells below 10 uM. The format is cell-based.
Chain of 5-hydroxytryptamine receptor 4 (Homo sapiens) (Q13639 whole entry): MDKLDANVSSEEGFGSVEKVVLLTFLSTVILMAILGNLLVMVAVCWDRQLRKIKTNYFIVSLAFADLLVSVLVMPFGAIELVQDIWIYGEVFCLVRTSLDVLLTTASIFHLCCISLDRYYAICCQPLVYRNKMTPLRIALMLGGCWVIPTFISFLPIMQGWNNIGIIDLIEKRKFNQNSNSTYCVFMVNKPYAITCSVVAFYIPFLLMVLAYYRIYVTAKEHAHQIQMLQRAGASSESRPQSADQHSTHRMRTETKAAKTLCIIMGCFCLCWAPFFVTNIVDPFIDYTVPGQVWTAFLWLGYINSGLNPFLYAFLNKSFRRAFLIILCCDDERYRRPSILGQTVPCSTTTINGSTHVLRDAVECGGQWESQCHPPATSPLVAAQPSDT
Test [2] concerns Amphibalanus improvisus. Nature of the test: Reversal of antifouling activity in Balanus improvisus assessed as inhibition of cyprid larvae settlement at 10 uM after 48 hrs measured after transferring to fresh sea water. The test is classed as functional, organism-based.
For test [3], the system named is Amphibalanus improvisus. Nature of the test: Antifouling activity in Balanus improvisus assessed as inhibition of cyprid larvae settlement. The test is classed as functional, organism-based.
The target of test [4] is 5-hydroxytryptamine receptor 2A (Homo sapiens) (UniProt P28223). Nature of the test: Binding affinity to human 5HT2A receptor expressed in HEK293 cells. The test is classed as cell-based.
Chain of 5-hydroxytryptamine receptor 2A (Homo sapiens) (P28223 whole entry): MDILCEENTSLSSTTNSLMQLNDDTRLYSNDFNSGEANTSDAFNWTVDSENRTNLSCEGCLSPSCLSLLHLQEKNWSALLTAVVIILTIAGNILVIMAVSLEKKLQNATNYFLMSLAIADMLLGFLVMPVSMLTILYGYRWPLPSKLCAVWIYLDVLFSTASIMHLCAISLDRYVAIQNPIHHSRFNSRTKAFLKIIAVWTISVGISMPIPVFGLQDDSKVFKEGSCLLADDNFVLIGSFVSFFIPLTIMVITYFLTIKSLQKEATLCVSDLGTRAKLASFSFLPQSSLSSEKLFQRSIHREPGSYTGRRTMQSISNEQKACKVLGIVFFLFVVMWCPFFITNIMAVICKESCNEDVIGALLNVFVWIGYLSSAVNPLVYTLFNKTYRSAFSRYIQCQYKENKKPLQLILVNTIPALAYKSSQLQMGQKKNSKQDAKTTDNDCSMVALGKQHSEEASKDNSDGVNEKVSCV
Test [5] has as its target T1, 5-hydroxytryptamine receptor 2C (Homo sapiens) (UniProt P28335).
T1 sequence (whole entry): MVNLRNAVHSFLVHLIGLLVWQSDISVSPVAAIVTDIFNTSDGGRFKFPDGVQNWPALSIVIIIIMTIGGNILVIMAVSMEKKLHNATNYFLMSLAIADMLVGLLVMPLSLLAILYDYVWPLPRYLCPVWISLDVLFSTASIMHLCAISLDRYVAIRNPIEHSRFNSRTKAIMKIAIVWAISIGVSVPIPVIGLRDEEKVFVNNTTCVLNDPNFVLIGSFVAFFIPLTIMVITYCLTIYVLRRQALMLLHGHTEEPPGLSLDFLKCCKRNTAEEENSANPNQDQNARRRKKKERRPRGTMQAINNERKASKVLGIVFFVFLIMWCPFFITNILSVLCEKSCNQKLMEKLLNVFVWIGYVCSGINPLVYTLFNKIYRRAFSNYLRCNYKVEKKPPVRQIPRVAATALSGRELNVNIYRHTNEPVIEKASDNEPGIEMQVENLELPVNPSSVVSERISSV
Nature of the test: Binding affinity to human 5HT2C receptor expressed in HEK293 cells. The test is classed as cell-based.

Test [6] addresses 5-hydroxytryptamine receptor 4 (Homo sapiens) (UniProt Q13639). Nature of the test: Binding affinity to human 5HT4 receptor expressed in HEK293 cells. The format is cell-based.

With `N=C(N)NCCC[C@@H]1NC(=O)C(Cc2c[nH]c3cc(Br)ccc23)NC1=O` (stereo partly specified), the result in test [1] was Active.
Regarding `N=C(N)NCCC[C@@H]1NC(=O)C(C(O)(c2c[nH]c3cc(Br)ccc23)c2c(Br)ccc3c(=O)o[nH]c23)NC1=O` (stereo partly specified), in test [2], the result was Active. The EC50 in test [3] came out at 0.015 µM. Besides, the result in test [4], in test [5] and in test [6] was inactive.
